Measured values as given in publication PMC7961380, “A Systematic Study of the In Vitro Pharmacokinetics and Estimated Human In Vivo Clearance of Indole and Indazole-3-Carboxamide Synthetic Cannabinoid Receptor Agonists Detected on the Illicit Drug Market” (Molecules, 2021).

How the values were obtained:
[1] = tested on: pooled human cryopreserved hepatocytes (pHHeps); experiment: Metabolic stability, pooled human cryopreserved hepatocyte incubations; conditions: for Predicted In Vivo Hepatic Clearance, CLH: from pHHeps CLint, well-stirred model with plasma fu, Q 21 mL min^−1 kg^−1; for T1/2: pHHeps 0.25 million cells mL^−1, 0.5 µM, 37 °C, n ≥ 3 ± SD; for Intrinsic clearance, CLint: alternative hepatocyte cell density 99x10^6 hepatocytes per gram liver
[2] = Short-term plasma stability with and without esterase inhibitors; conditions: 3 h, 37 °C; for remaining at 3 h, 5 µM: human, pH 7.4, Parent Compound Remaining (%)
Method: The pooled plasma used for both plasma stability and plasma binding studies originated from 50 donors, collected as whole blood from donors in the United States at an FDA-approved collection center, processed into plasma by centrifugation and immediately frozen (Innovative Research; Novi, MI, USA) and purchased from Patricell (Nottingham, UK). […] Stock solutions were prepared in DMSO. […] For incubations without inhibitor an equivalent volume of DMSO was included. Plasma mixture was pre-incubated at 37 °C for 5 min. Test compounds (5 µM) and procaine (positive control, 50 µM) were added to pre-warmed plasma mixture containing inhibitors. Incubation volume was 1 mL. Samples were mixed and 80 µL was immediately sampled and quenched into 200 µL ACN spiked with donepezil (internal standard (IS), 50 ng mL^−1). […] Peak area ratio of analyte to IS was used to determine half-lives of test compounds in plasma, both with and without the presence of esterase inhibitors.
The human plasma used was pooled from 50 donors, and was collected as whole blood from donors in
the United States at an FDA-approved collection center, processed into plasma by centrifugation and
The stability of the tested SCRAs, select metabolites and procaine control in pooled human plasma over
inhibitors bis(4-nitrophenyl) phosphate (BNPP) and phenyl methyl sulphonyl fluoride (PMSF) is

[3] = Metabolic stability, pooled human liver microsome incubations; conditions: for Predicted In Vivo Hepatic Clearance, CLH: from pHLM CLint, well-stirred model with plasma fu, Q 21 mL min^−1 kg^−1; for CLint scaled at 0.5 µM: pH 7.4, Intrinsic clearance
Method: Total incubation volume was 500 µL. Procedure: Test compound working solutions (50 µM in potassium phosphate buffer (pH 7.4)) were prepared (<1% DMSO). pHLM were thawed and diluted in potassium phosphate buffer (pH 7.4). […] Reactions were quenched in 200 µL ACN spiked with donepezil (IS, 50 ng mL^−1). […] Samples were analysed by UPLC-MS/MS in a 96 deep-well 2 mL plate. Each SCRA was incubated at least in triplicate but additional incubations were carried out across a number of analytical batches, giving greater replication and a greater understanding of system variability. Microsomal scaling factors used for human liver microsome incubations in the literature vary. Intrinsic clearance and predicted in vivo clearance rates calculated using alternative scaling factors found in the literature is provided in Section S6 of the supplementary information, to aid comparison of data between publications.
Equations used for in vitro intrinsic clearance calculation and human in vivo clearance […]
The equations used for in vitro intrinsic clearance calculation and human in vivo clearance estimation […]
Microsomal clearance (HLM incubations) in mL min-1 mg microsomal protein-1 [3]
Intrinsic clearance (whole-liver dimensions) (HLM incubations) in mL min-1 kg-1 [3] CL = k x V x [Liver](g) x SF Eqn. 7 […]
mg g microsomal protein-1 [7]
Intrinsic clearance (whole-liver dimensions) (HHep incubations) in mL min-1 kg-1 [4] CL = k x V x hepatocytes/g liver x [Liver](g) Eqn. 8 […]
Where: hepatocytes/g liver = 107x10^6 cells/g liver
Hepatic clearance in mL min-1 kg-1 [3]
[…] Eqn. 9
Where: Q = hepatic blood flow, 21 mL min-1 kg-1 [9]; fu = fraction unbound (plasma); CLint = […]
Estimated human hepatic extraction ratio [5]
Intrinsic clearance data – pooled human liver microsome incubations […]
table S4-28. Intrinsic clearance and predicted in vivo data calculated using alternative microsomal scaling factors found in the literature – 32 [10] and 45 [11] mg microsomal protein per gram liver – are provided in tables S29 and S30, respectively.

[4] = Plasma protein binding by equilibrium dialysis; type: in vitro ADME, human; conditions: 37 °C; for PPB (%): 10 µg mL^−1
Method: Plasma protein binding was assessed by equilibrium dialysis in a 96-well dialysis block (HTDialysis, Ledyard, CT, USA). Dialysis membranes (12–14 kDa) were soaked in deionised water for at least 60 min. Membranes were soaked overnight at 4 °C in ethanol:water 20:80% v/v and then rinsed with deionised water immediately prior to use. […] Spiked plasma (150 µL) was dialysed against isotonic phosphate buffer (pH 7.4) (150 µL) for 5 h at 37 °C with shaking at 100 rpm. Thermal degradation controls for each test compound were kept at 37 °C and 4 °C. Blank control plasma and buffer were included in the incubation. Following incubation, dialysed plasma samples and thermal degradation controls (50 µL) were added to drug-free buffer (50 µL), and dialysed buffer samples (50 µL) were added to drug-free plasma (50 µL). […] Supernatant (150 µL) was added to 50 µL deionised water and samples were analysed by UPLC-MS/MS as described above. Dialysed buffer from each well was tested for protein contamination using BCA protein assay reagent to determine whether membranes had been compromised.
Bu = Analyte/IS ratio determined in buffer side (2) Fraction unbound, fu=(100−% bound)/100

[5] = pHHeps, 99x10^6 hepatocytes per gram liver
[6] = pHLM, scaling factor 32 mg microsomal protein per gram liver
[7] = pHLM, scaling factor 45 mg microsomal protein per gram liver

For `COC(=O)[C@H](NC(=O)c1cn(CCCCCF)c2ccccc12)C(C)(C)C` [(R)-5F-MDMB-PICA (3), methyl 2-[1-(5-fluoropentyl)-1H-indole-3-carboxamido]-3,3-dimethylbutanoate], the “Predicted In Vivo Hepatic Clearance, CLH” value [1] was 6.27 ± 0.74 mL/min/kg, the “Hepatic extraction ratio, EH” value ([1]; from pHHeps incubations) was 0.30 ± 0.035 and the “T1/2” value [1] was 54 ± 9.4 min. The “Hepatic extraction ratio, EH” value [1, 5] was 0.28 ± 0.034, the “Predicted in vivo hepatic clearance, CLH” value [1, 5] was 5.94 ± 0.72 mL/min/kg and the “% parent compound remaining, Average” value ([1]; pHHeps, 3 min) was 87.4%. For the same molecule, the “% parent compound remaining, Average” value ([1]; pHHeps, 6 min) was 85.8%, the “% parent compound remaining, Average” value ([1]; pHHeps, 9 min) was 88.6% and the “% parent compound remaining, Average” value ([1]; pHHeps, 15 min) was 78.8%. The “% parent compound remaining, Average” value ([1]; pHHeps, 30 min) was 64.9%, the “% parent compound remaining, Average” value ([1]; pHHeps, 45 min) was 51.8% and the “% parent compound remaining, Average” value ([1]; pHHeps, 60 min) was 43.7%. The “Intrinsic clearance, CLint” value ([1]; pHHeps) was 134 ± 22.3 mL/min/kg, the “Parent Compound Remaining (%), Esterase Inhibitors” value ([2]; pH 7.4, BNPP and PMSF 500 µM each) was 97.7 ± 5.6% and the “Parent Compound Remaining (%), No Esterase Inhibitors” value ([2]; pH 7.4, pooled human plasma) was 103.2 ± 14.5%. The “Predicted In Vivo Hepatic Clearance, CLH” value [3] was 7.22 ± 0.05 mL/min/kg, the “Hepatic extraction ratio, EH” value ([3]; from pHLM incubations) was 0.34 ± 0.002 and the “T1/2” value ([3]; pHLM 0.5 mg mL^−1, 0.5 µM, NADPH, 37 °C, n ≥ 3 ± SD) was 11 ± 0.11 min. The “% parent compound remaining, Average” value ([3]; pHLM, 3 min) was 72.6%, the “% parent compound remaining, Average” value ([3]; pHLM, 6 min) was 62.5% and the “% parent compound remaining, Average” value ([3]; pHLM, 9 min) was 52.6%. For the same molecule, the “% parent compound remaining, Average” value ([3]; pHLM, 15 min) was 36.8%, the “% parent compound remaining, Average” value ([3]; pHLM, 30 min) was 16.4% and the “Intrinsic clearance, CLint” value ([3]; pHLM, alternative microsomal scaling factor 32 mg microsomal protein per gram liver) was 108 ± 1.13 mL/min/kg. For the same molecule, the “Intrinsic clearance, CLint” value ([3]; pHLM, alternative microsomal scaling factor 45 mg microsomal protein per gram liver) was 152 ± 1.59 mL/min/kg, the “Microsomal Intrinsic Clearance, CLint micr” value ([3]; pHLM, n ≥ 3 ± SD) was 0.132 ± 0.001 mL min^−1 mg Microsomal Protein^−1 and the “Hepatic extraction ratio, EH” value [3, 6] was 0.24 ± 0.002. For the same molecule, the “Predicted in vivo hepatic clearance, CLH” value [3, 6] was 5.09 ± 0.04 mL/min/kg, the “Hepatic extraction ratio, EH” value [3, 7] was 0.31 ± 0.002 and the “Predicted in vivo hepatic clearance, CLH” value [3, 7] was 6.51 ± 0.05 mL/min/kg. The “PPB (%)” value ([4]; equilibrium dialysis 5 h) was 93.8 ± 0.15% and the “Fraction Unbound (fu)” value ([4]; equilibrium dialysis 5 h, plasma) was 0.062 ± 0.0015.
With `COC(=O)[C@@H](NC(=O)c1nn(CCCCF)c2ccccc12)C(C)(C)C` [(S)-4F-MDMB-BINACA (4), methyl 2-[1-(4-fluorobutyl)-1H-indazole-3-carboxamido]-3,3-dimethylbutanoate] the “Predicted In Vivo Hepatic Clearance, CLH” value [1] was 12.08 ± 0.23 mL/min/kg, the “Hepatic extraction ratio, EH” value ([1]; from pHHeps incubations) was 0.58 ± 0.011 and the “T1/2” value [1] was 16 ± 0.74 min. For the same molecule, the “Hepatic extraction ratio, EH” value [1, 5] was 0.56 ± 0.011, the “Predicted in vivo hepatic clearance, CLH” value [1, 5] was 11.68 ± 0.24 mL/min/kg and the “% parent compound remaining, Average” value ([1]; pHHeps, 3 min) was 82.3%. The “% parent compound remaining, Average” value ([1]; pHHeps, 6 min) was 73.7%, the “% parent compound remaining, Average” value ([1]; pHHeps, 9 min) was 69.2% and the “% parent compound remaining, Average” value ([1]; pHHeps, 15 min) was 53.9%. The “% parent compound remaining, Average” value ([1]; pHHeps, 30 min) was 25.8%, the “% parent compound remaining, Average” value ([1]; pHHeps, 45 min) was 12.5% and the “% parent compound remaining, Average” value ([1]; pHHeps, 60 min) was 6.2%. The “Intrinsic clearance, CLint” value ([1]; pHHeps) was 432 ± 20.0 mL/min/kg, the remaining at 3 h, 5 µM ([2]; Esterase Inhibitors, pH 7.4, BNPP and PMSF 500 µM each) was 96 ± 2.9% and the remaining at 3 h, 5 µM ([2]; plasma, No Esterase Inhibitors, pH 7.4, pooled human plasma) was 93.1 ± 5.1%. The “Predicted In Vivo Hepatic Clearance, CLH” value [3] was 7.51 ± 0.88 mL/min/kg, the “Hepatic extraction ratio, EH” value ([3]; from pHLM incubations) was 0.36 ± 0.042 and the CLint scaled at 0.5 µM ([3]; human, microsomes, pHLM, alternative microsomal scaling factor 32 mg microsomal protein per gram liver) was 118 mL/min/kg. The CLint scaled at 0.5 µM ([3]; human, microsomes, pHLM, alternative microsomal scaling factor 45 mg microsomal protein per gram liver) was 165 mL/min/kg, the half-life at 0.5 µM ([3]; human, microsomes, pH 7.4, T1/2 (min), pHLM 0.5 mg mL^−1, 0.5 µM, NADPH, 37 °C, n ≥ 3 ± SD) was 9.9 ± 1.9 min and the “% parent compound remaining, Average” value ([3]; pHLM, 3 min) was 74.9%. The “% parent compound remaining, Average” value ([3]; pHLM, 6 min) was 63.6%, the “% parent compound remaining, Average” value ([3]; pHLM, 9 min) was 50.4% and the “% parent compound remaining, Average” value ([3]; pHLM, 15 min) was 32.7%. For the same molecule, the “% parent compound remaining, Average” value ([3]; pHLM, 30 min) was 17.0%, the “Microsomal Intrinsic Clearance, CLint micr” value ([3]; pHLM, n ≥ 3 ± SD) was 0.143 ± 0.025 mL min^−1 mg Microsomal Protein^−1 and the “Hepatic extraction ratio, EH” value [3, 6] was 0.25 ± 0.034. For the same molecule, the “Predicted in vivo hepatic clearance, CLH” value [3, 6] was 5.33 mL/min/kg, the “Predicted in vivo hepatic clearance, CLH” value [3, 7] was 6.78 mL/min/kg and the “PPB (%)” value ([4]; equilibrium dialysis 5 h) was 93.9 ± 0.28%. The fraction unbound at 5 h, 10 µg mL^−1 ([4]; human, pooled human plasma, pH 7.4, equilibrium dialysis 5 h, plasma, read-out: Fraction Unbound (fu)) was 0.061 ± 0.0028.
